Patent US20240246964A1 (Arbutus Biopharma Corporation, priority 2021, published 2024)

Experiments:
[1] = target: PD-L1 His protein / PD-1 Fc protein (Homo sapiens (Human), UniProt Q9NZQ7); assay: HTRF Assay (PD-1/PD-L1 interaction); assay type: binding; details: PD-L1 His 6 nM, PD-1 Fc 6 nM
human PD-L1 = human PD-L1 (Homo sapiens (Human), UniProt Q9NZQ7); assay: T cell activation luciferase reporter cell culture system (T Cell Activation Assay); assay type: cell-based; details: luciferase reporter assay; PD-L1 aAPC/CHO-K1 cells with PD-1 effector Jurkat T cells
human PD-L1, sequence (Q9NZQ7 19-290): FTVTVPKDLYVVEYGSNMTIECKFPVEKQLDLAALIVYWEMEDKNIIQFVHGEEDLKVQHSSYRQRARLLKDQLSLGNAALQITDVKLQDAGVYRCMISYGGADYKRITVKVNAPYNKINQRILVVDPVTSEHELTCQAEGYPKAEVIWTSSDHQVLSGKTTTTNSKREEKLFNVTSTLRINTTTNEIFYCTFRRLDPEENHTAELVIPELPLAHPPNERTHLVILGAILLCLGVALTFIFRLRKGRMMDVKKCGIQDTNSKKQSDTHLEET

PD-L1 His protein / PD-1 Fc protein, sequence (Q9NZQ7 19-238): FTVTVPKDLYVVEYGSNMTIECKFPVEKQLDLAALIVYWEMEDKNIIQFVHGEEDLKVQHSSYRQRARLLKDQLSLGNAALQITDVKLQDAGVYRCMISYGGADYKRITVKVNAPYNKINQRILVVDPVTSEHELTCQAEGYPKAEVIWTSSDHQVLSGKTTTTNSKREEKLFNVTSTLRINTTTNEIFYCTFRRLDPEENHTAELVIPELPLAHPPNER

Compound	IC50 [1] [nM]	EC50 (human PD-L1) [nM]
COc1nc(-c2cccc(-c3ccnc(-c4cc(OC)c5nc(CN6CC(C)(O)C6)cn5c4)c3Cl)c2Cl)ccc1CNC[C@@H]1CCC(=O)N1 [Example 317, (S)-5-((((6-(2-Chloro-3-(3-chloro-2-(2-((3-hydroxy-3-methylazetidin-1-yl)methyl)-8-methoxyimidazo[1,2-a]pyridin-6-yl)pyridin-4-yl)phenyl)-2-methoxypyridin-3-yl)methyl)amino)methyl)pyrrolidin-2-one]	1.94	62.6
COc1nc(-c2cccc(-c3ccnc(-c4cc(OC)c5nc(CNC6CCN(C(C)=O)CC6)cn5c4)c3Cl)c2Cl)ccc1CNC[C@@H]1CCC(=O)N1 [Example 318, (S)-5-((((6-(3-(2-(2-(((1-Acetylpiperidin-4-yl)amino)methyl)-8-methoxyimidazo[1,2-a]pyridin-6-yl)-3-chloropyridin-4-yl)-2-chlorophenyl)-2-methoxypyridin-3-yl)methyl)amino)methyl)pyrrolidin-2-one]	1.8	31.5
COc1nc(-c2cccc(-c3ccnc(-c4cc(OC)c5nc(CN6CC7(C6)CN(C(C)=O)C7)cn5c4)c3Cl)c2Cl)ccc1CNC[C@@H]1CCC(=O)N1 [Example 319, (S)-5-((((6-(3-(2-(2-((6-Acetyl-2,6-diazaspiro[3.3]heptan-2-yl)methyl)-8-methoxyimidazo[1,2-a]pyridin-6-yl)-3-chloropyridin-4-yl)-2-chlorophenyl)-2-methoxypyridin-3-yl)methyl)amino)methyl)pyrrolidin-2-one]	0.767	38.3
COc1nc(-c2cccc(-c3ccnc(-c4cc(OC)c5nc(CN6CC7(CCC(=O)N7)C6)cn5c4)c3Cl)c2Cl)ccc1CNC[C@@H]1CCC(=O)N1 [Example 320, (S)-2-((6-(3-Chloro-4-(2-chloro-3-(6-methoxy-5-((((5-oxopyrrolidin-2-yl)methyl)amino)methyl)pyridin-2-yl)phenyl)pyridin-2-yl)-8-methoxyimidazo[1,2-a]pyridin-2-yl)methyl)-2,5-diazaspiro[3.4]octan-6-one]	0.231	51.2
COc1nc(-c2cccc(-c3ccnc(-c4cc(OC)c5nc(CNC6CC7(COC7)C6)cn5c4)c3Cl)c2Cl)ccc1CNC[C@@H]1CCC(=O)N1 [Example 321, (S)-5-((((6-(3-(2-(2-(((2-Oxaspiro[3.3]heptan-6-yl)amino)methyl)-8-methoxyimidazo[1,2-a]pyridin-6-yl)-3-chloropyridin-4-yl)-2-chlorophenyl)-2-methoxypyridin-3-yl)methyl)amino)methyl)pyrrolidin-2-one]	0.847	64.7
COc1cc(-c2nccc(-c3cccc(-c4ccc(CN5CCC(NC(C)=O)CC5)c(OC)n4)c3Cl)c2Cl)ccc1CN1CCC(NC(C)=O)CC1 [Example 322, N-(1-((6-(3-(2-(4-((4-Acetamidopiperidin-1-yl)methyl)-3-methoxyphenyl)-3-chloropyridin-4-yl)-2-chlorophenyl)-2-methoxypyridin-3-yl)methyl)piperidin-4-yl)acetamide]	23.1	72.9
COc1cc(-c2nccc(-c3cccc(-c4ccc(CNC5CCN(C(C)=O)CC5)c(OC)n4)c3Cl)c2Cl)ccc1CN1CCC(NC(C)=O)CC1 [Example 325, N-(1-(4-(4-(3-(5-(((1-Acetylpiperidin-4-yl)amino)methyl)-6-methoxypyridin-2-yl)-2-chlorophenyl)-3-chloropyridin-2-yl)-2-methoxybenzyl)piperidin-4-yl)acetamide]	2.76	39.5
COc1cc(-c2nccc(-c3cccc(-c4ccc(CNC5CCN(C(C)C)CC5)c(OC)n4)c3Cl)c2Cl)ccc1CNC1CCN(C(C)C)CC1 [Example 326, N-((6-(2-Chloro-3-(3-chloro-2-(4-(((1-isopropylpiperidin-4-yl)amino)methyl)-3-methoxyphenyl)pyridin-4-yl)phenyl)-2-methoxypyridin-3-yl)methyl)-1-isopropylpiperidin-4-amine]	4.23	43
COc1cc(-c2nccc(-c3cccc(-c4ccc(CNC5CCC(F)(F)CC5)c(OC)n4)c3Cl)c2Cl)ccc1CNC1CCC(F)(F)CC1 [Example 327, N-((6-(2-Chloro-3-(3-chloro-2-(4-(((4,4-difluorocyclohexyl)amino)methyl)-3-methoxyphenyl)pyridin-4-yl)phenyl)-2-methoxypyridin-3-yl)methyl)-4,4-difluorocyclohexan-1-amine]	1.7	178
COc1cc(-c2nccc(-c3cccc(-c4ccc(CNC5CCN(CCO)CC5)c(OC)n4)c3Cl)c2Cl)ccc1CNC1CCN(CCO)CC1 [Example 328, 2-(4-(((6-(2-Chloro-3-(3-chloro-2-(4-(((1-(2-hydroxyethyl)piperidin-4-yl)amino)methyl)-3-methoxyphenyl)pyridin-4-yl)phenyl)-2-methoxypyridin-3-yl)methyl)amino)piperidin-1-yl)ethan-1-ol]	1.52	28.1
CCC(=O)N1CCC(NCc2ccc(-c3cccc(-c4ccnc(-c5cc(F)c(CNC6CCN(C(=O)CC)CC6)c(OC)c5)c4Cl)c3Cl)nc2OC)CC1 [Example 331, 1-(4-(((6-(2-Chloro-3-(3-chloro-2-(3-fluoro-5-methoxy-4-(((1-propionylpiperidin-4-yl)amino)methyl)phenyl)pyridin-4-yl)phenyl)-2-methoxypyridin-3-yl)methyl)amino)piperidin-1-yl)propan-1-one]	23.6	17
COc1cc(-c2nccc(-c3cccc(-c4ccc(CN5CC6(CNC(=O)C6)C5)c(OC)n4)c3Cl)c2Cl)ccc1CNC1CCN(C(C)=O)CC1 [Example 332, 2-((6-(3-(2-(4-(((1-acetylpiperidin-4-yl)amino)methyl)-3-methoxyphenyl)-3-chloropyridin-4-yl)-2-chlorophenyl)-2-methoxypyridin-3-yl)methyl)-2,6-diazaspiro[3.4]octan-7-one]	1.8	12.4
COc1cc(-c2nccc(-c3cccc(-c4ccc(CNC5CCN(C(C)=O)CC5)c(OC)n4)c3Cl)c2F)ccc1CNC1CCN(C(C)=O)CC1 [Example 337, 1-(4-(((6-(3-(2-(4-(((1-Acetylpiperidin-4-yl)amino)methyl)-3-methoxyphenyl)-3-fluoropyridin-4-yl)-2-chlorophenyl)-2-methoxypyridin-3-yl)methyl)amino)piperidin-1-yl)ethan-1-one]	0.3	62
COc1cc(-c2nccc(-c3cccc(-c4ccc(CNC5CCN(C(C)=O)CC5)c(OC)n4)c3Cl)c2Cl)ccc1CN[C@@H]1COC(=O)C1 [Example 338, (S)-4-((4-(4-(3-(5-(((1-Acetylpiperidin-4-yl)amino)methyl)-6-methoxypyridin-2-yl)-2-chlorophenyl)-3-chloropyridin-2-yl)-2-methoxybenzyl)amino)dihydrofuran-2(3H)-one]	0.17	96.3
COC(=O)C[C@@H](CO)NCc1ccc(-c2nccc(-c3cccc(-c4ccc(CNC5CCN(C(C)=O)CC5)c(OC)n4)c3Cl)c2Cl)cc1OC [Example 339, Methyl (S)-3-((4-(4-(3-(5-(((1-acetylpiperidin-4-yl)amino)methyl)-6-methoxypyridin-2-yl)-2-chlorophenyl)-3-chloropyridin-2-yl)-2-methoxybenzyl)amino)-4-hydroxybutanoate]	0.12	97.6
COc1cc(-c2nccc(-c3cccc(-c4ccc(CNC5CCN(C(C)=O)CC5)c(OC)n4)c3Cl)c2Cl)ccc1CN[C@H]1CCOC1=O [Example 340, (S)-3-((4-(4-(3-(5-(((1-Acetylpiperidin-4-yl)amino)methyl)-6-methoxypyridin-2-yl)-2-chlorophenyl)-3-chloropyridin-2-yl)-2-methoxybenzyl)amino)dihydrofuran-2(3H)-one]	0.1	523
COc1cc(-c2nccc(-c3cccc(-c4ccc(CN5CCC(NC(C)=O)CC5)c(OC)n4)c3Cl)c2Cl)ccc1CNC1CCN(C(C)=O)CC1 [Example 341, N-(1-((6-(3-(2-(4-(((1-acetylpiperidin-4-yl)amino)methyl)-3-methoxyphenyl)-3-chloropyridin-4-yl)-2-chlorophenyl)-2-methoxypyridin-3-yl)methyl)piperidin-4-yl)acetamide]	1.14	22.6
COc1cc(-c2nccc(-c3cccc(-c4ccc(CNC5CCN(C(C)=O)CC5)c(OC)n4)c3Cl)c2Cl)ccc1CN[C@H](CO)CC(=O)O [Example 342, (S)-3-((4-(4-(3-(5-(((1-Acetylpiperidin-4-yl)amino)methyl)-6-methoxypyridin-2-yl)-2-chlorophenyl)-3-chloropyridin-2-yl)-2-methoxybenzyl)amino)-4-hydroxybutanoic acid]	0.08	339
COc1cc(-c2nccc(-c3cccc(-c4ccc(CNC5CCN(C(C)=O)CC5)c(OC)n4)c3Cl)c2Cl)ccc1CN[C@@H](CCO)C(=O)O [Example 343, (4-(4-(3-(5-(((1-Acetylpiperidin-4-yl)amino)methyl)-6-methoxypyridin-2-yl)-2-chlorophenyl)-3-chloropyridin-2-yl)-2-methoxybenzyl)-L-homoserine]	0.09	248
CCC(=O)N1CCC(NCc2ccc(-c3nccc(-c4cccc(-c5ccc(CNC6CCN(C(=O)CC)CC6)c(OC)n5)c4Cl)c3Cl)cc2OC)CC1 [Example 344, 1-(4-(((6-(2-Chloro-3-(3-chloro-2-(3-methoxy-4-(((1-propionylpiperidin-4-yl)amino)methyl)phenyl)pyridin-4-yl)phenyl)-2-methoxypyridin-3-yl)methyl)amino)piperidin-1-yl)propan-1-one]	6.41	14.9
COc1cc(-c2nccc(-c3cccc(-c4ccc(CN5CCC6(CC5)CC(=O)N6)c(OC)n4)c3Cl)c2Cl)ccc1CN1CCC2(CC1)CC(=O)N2 [Example 353, 7-((6-(2-Chloro-3-(3-chloro-2-(3-methoxy-4-((2-oxo-1,7-diazaspiro[3.5]nonan-7-yl)methyl)phenyl)pyridin-4-yl)phenyl)-2-methoxypyridin-3-yl)methyl)-1,7-diazaspiro[3.5]nonan-2-one]	0.16	≥ 10000
